Measurements: patent publication US11096931B2, “Amide derivatives useful in the treatment of HBV infection or HBV-induced diseases” (Janssen Sciences Ireland Unlimited Company, priority 2019, dated 2021)
Where two headings read alike, the source gives them in different places.

Key:
HBV = assay: anti HBV activity, HepG2.117 cell line, intracellular HBV DNA by real-time PCR; assay type: cell-based, hepatitis B virus; conditions: for EC50: Hepatitis B virus, read-out: HBV-AVE-HepG2.117_intra_EC50; for improved anti-HBV activity, fold improvement over Ref. compound 59: from table 4 EC50 values
Description: The anti HBV activity was measured using the HepG2.117 cell line, a stable, inducible HBV producing cell line, which replicates HBV in the absence of doxicycline (Tet-off system). The HepG2 cell line is available from ATCC® under number HB-8065. Transfection of the HepG2 cell line can be as described in Sun and Nassal 2006 Journal of Hepatology 45 (2006) 636-645 “Stable HepG2-and Huh7-based human hepatoma cell lines for efficient regulated expression of infectious hepatitis B virus”.
For the antiviral assay, HBV replication was induced, followed by a treatment with serially diluted compound in 96-well plates. After 3 days of treatment, the antiviral activity was determined by quantification of intracellular HBV DNA using real-time PCR and an HBV specific primer set and probe.

[1] = Cytotoxicity, ATPlite cell viability; assay type: cell-based; conditions: human, mean value, HepG2 or HepG2.117 cells
Description: Cytotoxicity of the compounds was tested using HepG2 or HepG2.117 cells, incubated for 4 days in the presence of compounds. The viability of the cells was assessed using the Perkin Elmer ATPlite Luminescence Assay System.”

[2] = 72 h, mean value, HepG2.117 cells, 3 days of treatment, intracellular HBV DNA

Row | SMILES | EC50 (HBV; [2]) [nM] | CC50 at 4 days [1] [nM] | EC50 (HBV; HepG2.117, 72 h) [nM] | improved anti-HBV activity, fold improvement over Ref. compound 59 (HBV) [fold]
1 | Cn1cc(C(=O)C(=O)N[C@]2(c3cn[nH]n3)CCC(F)(F)C2)cc1C(=O)Nc1ccc(F)c(C#N)c1 (single isomer, unassigned) [18*R] | 15 | 14100 | – | –
2 | Cn1cc(C(=O)C(=O)N[C@@]2(c3cn[nH]n3)CCC(F)(F)C2)cc1C(=O)Nc1ccc(F)c(C#N)c1 (single isomer, unassigned) [18*S] | 64 | 20700 | – | –
3 | Cn1cc(C(=O)C(=O)N[C@H](CC(F)F)c2cn[nH]n2)cc1C(=O)Nc1ccc(F)c(C#N)c1 (single isomer, unassigned) [24*R] | 46 | 9400 | – | –
4 | Cn1cc(C(=O)C(=O)N[C@@H](CC(F)F)c2cn[nH]n2)cc1C(=O)Nc1ccc(F)c(C#N)c1 (single isomer, unassigned) [24*S] | 562 | 28200 | – | –
5 | Cc1c(C(=O)C(=O)N[C@]2(c3cn[nH]n3)CCC(F)(F)C2)cn(C)c1C(=O)Nc1ccc(F)c(Cl)c1 (single isomer, unassigned) [25*R] | 3 | 18600 | – | –
6 | Cc1c(C(=O)C(=O)N[C@@]2(c3cn[nH]n3)CCC(F)(F)C2)cn(C)c1C(=O)Nc1ccc(F)c(Cl)c1 (single isomer, unassigned) [25*S] | 4 | 24200 | – | –
7 | Cc1c(C(=O)C(=O)N[C@H](CC(F)(F)F)c2cn[nH]n2)cn(C)c1C(=O)Nc1ccc(F)c(Cl)c1 (single isomer, unassigned) [26*R] | 7 | > 50000 | – | –
8 | Cc1c(C(=O)C(=O)N[C@@H](CC(F)(F)F)c2cn[nH]n2)cn(C)c1C(=O)Nc1ccc(F)c(Cl)c1 (single isomer, unassigned) [26*S] | 18 | > 50000 | – | –
9 | Cn1cc(C(=O)C(=O)N[C@@]2(c3cn[nH]n3)C[C@@H]2C(F)F)cc1C(=O)Nc1ccc(F)c(C#N)c1 (single isomer, unassigned) [27*R*R] | 273 | 24300 | – | –
10 | Cn1cc(C(=O)C(=O)N[C@]2(c3cn[nH]n3)C[C@H]2C(F)F)cc1C(=O)Nc1ccc(F)c(C#N)c1 (single isomer, unassigned) [27*S*S] | 92 | > 50000 | – | –
11 | Cc1c(C(=O)C(=O)N[C@H](CC(F)(F)F)c2cn[nH]n2)c(C)n(C)c1C(=O)Nc1ccc(F)c(C#N)c1 (single isomer, unassigned) [44*R] | 5 | > 50000 | – | –
12 | Cc1c(C(=O)C(=O)N[C@@H](CC(F)(F)F)c2cn[nH]n2)c(C)n(C)c1C(=O)Nc1ccc(F)c(C#N)c1 (single isomer, unassigned) [44*S] | < 12 | > 50000 | – | –
13 | Cc1c(C(=O)C(=O)N[C@H](CC(F)(F)F)c2cn[nH]n2)cn(C)c1C(=O)Nc1ccc(F)c(C#N)c1 (single isomer, unassigned) [47*R] | 21 | > 50000 | – | –
14 | Cc1c(C(=O)C(=O)N[C@@H](CC(F)(F)F)c2cn[nH]n2)cn(C)c1C(=O)Nc1ccc(F)c(C#N)c1 (single isomer, unassigned) [47*S] | 11 | > 50000 | – | –
15 | Cc1c(C(=O)C(=O)N[C@](C)(c2cn[nH]n2)C(F)F)cn(C)c1C(=O)Nc1ccc(F)c(C#N)c1 (single isomer, unassigned) [48*R] | 12 | > 50000 | – | –
16 | Cc1c(C(=O)C(=O)N[C@@](C)(c2cn[nH]n2)C(F)F)cn(C)c1C(=O)Nc1ccc(F)c(C#N)c1 (single isomer, unassigned) [48*S] | 4 | > 50000 | – | –
17 | Cc1c(C(=O)C(=O)N[C@H](CC(C)(F)F)c2cn[nH]n2)cn(C)c1C(=O)Nc1ccc(F)c(C#N)c1 (single isomer, unassigned) [49*R] | 16 | > 50000 | – | –
18 | Cc1c(C(=O)C(=O)N[C@@H](CC(C)(F)F)c2cn[nH]n2)cn(C)c1C(=O)Nc1ccc(F)c(C#N)c1 (single isomer, unassigned) [49*S] | 27 | > 50000 | – | –
19 | Cn1cc(C(=O)C(=O)N[C@H](c2cnn[nH]2)C(C)(C)C)cc1C(=O)Nc1ccc(F)c(C#N)c1 (stereo in doubt) [Compound 11] | 100 | 26000 | – | –
20 | Cc1cc(NC(=O)c2cc(C(=O)C(=O)NC(C)c3cn[nH]n3)cn2C)ccc1F (stereo not shown) [Compound 1, N-(4-Fluoro-3-methylphenyl)-1-methyl-4-(oxo{[1-(2H-1,2,3-triazol-4-yl)ethyl]amino}acetyl)-1H-pyrrole-2-carboxamide] | – | > 50000 | 51 | ~10
21 | Cc1cc(NC(=O)c2cc(C(=O)C(=O)NC3(c4cn[nH]n4)CC(F)(F)C3)cn2C)ccc1F [Compound 2, 4-[{[3,3-Difluoro-1-(2H-1,2,3-triazol-4-yl)cyclobutyl]amino}(oxo)acetyl]-N-(4-fluoro-3-methylphenyl)-1-methyl-1H-pyrrole-2-carboxamide] | – | 23800 | 32 | ~18
22 | Cn1cc(C(=O)C(=O)NC2(c3cn[nH]n3)CC(F)(F)C2)c(Cl)c1C(=O)Nc1ccc(F)c(Cl)c1 [Compound 3] | 6 | 22000 | – | –
23 | Cn1cc(C(=O)C(=O)NC2(c3cn[nH]n3)CC(F)(F)C2)cc1C(=O)Nc1ccc(F)c(C#N)c1 [Compound 4] | 63 | 8200 | – | –

Row | SMILES | EC50 (HBV; [2]) [nM] | CC50 at 4 days [1] [nM] | EC50 (HBV; HepG2.117, 72 h) [nM] | improved anti-HBV activity, fold improvement over Ref. compound 59 (HBV) [fold]
24 | Cn1cc(C(=O)C(=O)NC2(c3cn[nH]n3)CC(F)(F)C2)c(F)c1C(=O)Nc1ccc(F)c(C#N)c1 [Compound 5] | 10 | 11900 | – | –
25 | Cn1cc(C(=O)C(=O)NC2(c3cn[nH]n3)CC(F)(F)C2)cc1C(=O)Nc1ccc(F)c(Cl)c1 [Compound 6] | 17 | 7100 | – | –
26 | Cn1cc(C(=O)C(=O)NC2(c3cn[nH]n3)CC(F)(F)C2)c(F)c1C(=O)Nc1ccc(F)c(Cl)c1 [Compound 7] | 11 | 13500 | – | –
27 | Cn1cc(C(=O)C(=O)NC2(c3cn[nH]n3)CC(F)(F)C2)c(Cl)c1C(=O)Nc1ccc(F)c(C#N)c1 [Compound 8] | 6 | > 50000 | – | –
28 | Cc1cc(NC(=O)c2cc(C(=O)C(=O)NC(C)(C)c3cn[nH]n3)cn2C)ccc1F [Compound 9] | 19 | > 50000 | – | –
29 | Cn1cc(C(=O)C(=O)NC2(c3c[nH]nn3)CC2)cc1C(=O)Nc1ccc(F)c(C#N)c1 [Compound 10] | 150 | > 50000 | – | –
30 | Cn1cc(C(=O)C(=O)NC2(c3cnnn3C)CC(F)(F)C2)c(Cl)c1C(=O)Nc1ccc(F)c(Cl)c1 [Compound 14] | 4 | > 50000 | – | –
31 | Cn1cc(C2(NC(=O)C(=O)c3cn(C)c(C(=O)Nc4ccc(F)c(Cl)c4)c3Cl)CC(F)(F)C2)nn1 [Compound 15] | 4 | > 50000 | – | –
32 | Cn1ncc(C2(NC(=O)C(=O)c3cn(C)c(C(=O)Nc4ccc(F)c(Cl)c4)c3Cl)CC(F)(F)C2)n1 [Compound 16] | 3 | > 50000 | – | –
33 | Cn1cc(C(=O)C(=O)NC2(c3cn[nH]n3)COC2)cc1C(=O)Nc1ccc(F)c(C#N)c1 [Compound 17] | 171 | > 50000 | – | –
34 | Cn1cc(C(=O)C(=O)NC(CC(F)(F)F)c2cn[nH]n2)cc1C(=O)Nc1ccc(F)c(C#N)c1 (stereo not shown) [Compound 20RS] | 61 | 12000 | – | –
35 | Cn1cc(C(=O)C(=O)NC2(c3cn[nH]n3)CS(=O)(=O)C2)cc1C(=O)Nc1ccc(F)c(C#N)c1 [Compound 21] | 1270 | > 50000 | – | –
36 | Cc1nc(C2(NC(=O)C(=O)c3cc(C(=O)Nc4ccc(F)c(C#N)c4)n(C)c3)CC(F)(F)C2)n[nH]1 [Compound 22] | 124 | 29500 | – | –
37 | Cc1c(C(=O)C(=O)NC2(c3cn[nH]n3)CC(F)(F)C2)c(Cl)c(C(=O)Nc2ccc(F)c(C#N)c2)n1C [Compound 23] | 4 | > 50000 | – | –
38 | Cn1cc(C(=O)C(=O)NC(CC(F)F)c2cn[nH]n2)cc1C(=O)Nc1ccc(F)c(C#N)c1 (stereo not shown) [Compound 24RS] | 60 | 22100 | – | –
39 | Cc1c(C(=O)C(=O)NC(CC(F)F)c2cn[nH]n2)c(C)n(C)c1C(=O)Nc1ccc(F)c(C#N)c1 (stereo not shown) [Compound 29] | 9 | > 50000 | – | –
40 | Cn1cc(C(=O)C(=O)NC2(c3nc[nH]n3)CC(F)(F)C2)cc1C(=O)Nc1ccc(F)c(C#N)c1 [Compound 30] | 142 | 31100 | – | –
41 | Cn1cc(C(=O)C(=O)NC2(c3cn[nH]n3)CC(F)(F)C2)c(Br)c1C(=O)Nc1ccc(F)c(C#N)c1 [Compound 31] | 3 | > 50000 | – | –
42 | COc1c(C(=O)C(=O)NC2(c3cn[nH]n3)CC(F)(F)C2)cn(C)c1C(=O)Nc1ccc(F)c(C#N)c1 [Compound 32] | 27 | 31700 | – | –
43 | Cc1c(C(=O)C(=O)NC2(c3cn[nH]n3)CC(F)(F)C2)cn(C)c1C(=O)Nc1ccc(F)c(Br)c1 [Compound 34] | 4 | 26300 | – | –
44 | Cc1c(C(=O)C(=O)NC2(c3cn[nH]n3)CC(F)(F)C2)c(Cl)n(C)c1C(=O)Nc1ccc(F)c(Cl)c1 [Compound 35] | 4 | 5800 | – | –
45 | Cn1cc(C(=O)C(=O)NC2(c3ccccc3)CC(F)(F)C2)cc1C(=O)Nc1ccc(F)c(C#N)c1 [Compound 36] | 10 | 1100 | – | –
46 | Cn1cc(C(=O)C(=O)NC2(c3cn[nH]n3)CC(F)(F)C2)c(C2CC2)c1C(=O)Nc1ccc(F)c(C#N)c1 [Compound 38] | 24 | > 50000 | – | –
